Assay results taken from patent publication US20240150365A1 (Hotspot Therapeutics, Inc., priority 2022, published 2024).

What was measured:
[1] = target: T1, MALT1 (Homo sapiens, UniProt Q9UDY8); test: MALT-1 Fluorogenic Peptide Cleavage Assay (MALT1 inhibition assay); format: biochemical; conditions: Avi-tagged FL MALT-1, Ac-LRSR-AMC peptide substrate, 30 min pre-incubation, 90 min reaction
T1 construct: Avi-tagged FL MALT-1 (Pharmaron, stored at −70° C.); Avi tag
T1 sequence (Q9UDY8 1-824): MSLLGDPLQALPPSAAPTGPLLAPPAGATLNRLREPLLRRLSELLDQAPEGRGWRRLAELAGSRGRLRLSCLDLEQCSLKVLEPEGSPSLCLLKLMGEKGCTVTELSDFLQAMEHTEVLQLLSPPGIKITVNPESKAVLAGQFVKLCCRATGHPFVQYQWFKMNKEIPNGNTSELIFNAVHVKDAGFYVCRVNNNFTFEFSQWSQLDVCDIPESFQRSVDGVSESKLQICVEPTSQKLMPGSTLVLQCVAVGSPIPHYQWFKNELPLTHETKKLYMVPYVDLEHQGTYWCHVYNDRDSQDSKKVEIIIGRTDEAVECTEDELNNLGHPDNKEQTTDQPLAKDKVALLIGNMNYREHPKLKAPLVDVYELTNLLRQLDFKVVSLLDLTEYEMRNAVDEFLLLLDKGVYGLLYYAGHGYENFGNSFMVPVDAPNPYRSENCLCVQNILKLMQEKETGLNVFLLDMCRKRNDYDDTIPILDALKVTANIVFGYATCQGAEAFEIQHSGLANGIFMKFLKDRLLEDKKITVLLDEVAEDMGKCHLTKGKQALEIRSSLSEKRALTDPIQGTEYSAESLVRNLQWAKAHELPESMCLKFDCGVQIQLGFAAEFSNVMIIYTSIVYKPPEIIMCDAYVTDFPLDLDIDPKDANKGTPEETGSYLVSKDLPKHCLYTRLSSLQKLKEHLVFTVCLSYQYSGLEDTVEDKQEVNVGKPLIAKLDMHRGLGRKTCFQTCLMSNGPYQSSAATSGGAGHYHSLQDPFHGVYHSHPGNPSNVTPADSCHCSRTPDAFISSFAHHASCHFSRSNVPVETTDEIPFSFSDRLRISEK
Method in brief: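 IC50 from sigmoidal fits of % inhibition, with fluorescence (ex 342, em 441 nm) from AMC released from the quenched LRSR peptide after 90 min at room temperature. Full-length Avi-tagged MALT1 saw compound for 30 min first; final DMSO 2%.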

[2] = tested on: NF-kB; test: NF-kB reporter assay in Jurkat cells stimulated with aCD3/aCD28/PMA; format: cell-based; conditions: Homo sapiens, Jurkat, Jurkat cells, 1 hr compound incubation, aCD3/aCD28/PMA stimulation 4 hr, One-Glo readout; read-out: NF-kB Reporter Assay IC50
Method in brief: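 Stimulation used final aCD3 5 μg/mL, aCD28 5 μg/mL and PMA 0.03 μg/mL for 4 hr at 37° C, after 1 hr compound pretreatment of 25,000 serum-starved Jurkat cells per well. One-Glo luminescence gave IC50 values.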

Compound | IC50 [1] [nM] | IC50 [2] [nM]
COc1ccc2cnn(C)c2c1N(C)S(=O)(=O)c1ccc(-c2cc(C(F)(F)F)n[nH]2)nc1 [Example I-48, N-(6-Methoxy-1-Methyl-1H-Indazol-7-yl)-N-Methyl-6-(3-(Trifluoromethyl)-1H-Pyrazol-5-yl)Pyridine-3-Sulfonamide] | < 400 | < 400
Cn1ncc2cccc(NS(=O)(=O)c3ccc(-c4cncc(S(C)(=O)=O)c4)nc3)c21 [Example I-137, N-(1-Methyl-1H-Indazol-7-yl)-5′-(Methylsulfonyl)-[2,3′-Bipyridine]-5-Sulfonamide] | > 2500 | > 2500
COc1ncccc1-c1ccc(S(=O)(=O)Nc2cccc3cnn(C)c23)cn1 [Example I-139, 2′-Methoxy-N-(1-Methyl-1H-Indazol-7-yl)-[2,3′-Bipyridine]-5-Sulfonamide] | > 2500 | < 400
Cc1nc(C)c(-c2ccc(S(=O)(=O)Nc3cccc4cnn(C)c34)cn2)s1 [Example I-103, 6-(2,4-Dimethylthiazol-5-yl)-N-(1-Methyl-1H-Indazol-7-yl)Pyridine-3-Sulfonamide] | 400 to 1000 | < 400
Cn1ncc2cccc(NS(=O)(=O)c3ccc(-n4ccc(C(F)F)n4)nc3)c21 [Example I-51, 6-[3-(Difluoromethyl)Pyrazol-1-Yl]-N-(1-Methylindazol-7-yl)Pyridine-3-Sulfonamide] | 1000 to 2500 | < 400
Cn1ncc2cccc(NS(=O)(=O)c3ccc(-c4cncnc4)nc3)c21 [Example I-133, N-(1-methylindazol-7-yl)-6-(pyrimidin-5-yl)pyridine-3-sulfonamide] | > 2500 | > 2500
Cn1ncc2ccc(C3CC3)c(NS(=O)(=O)c3ccc(-n4cc(Cl)cn4)nc3)c21 [Example I-17] | < 400 | < 400
Cc1cc(-c2ccc(S(=O)(=O)Nc3cccc4cnn(C)c34)cn2)[nH]n1 [Example I-83, N-(1-Methyl-1H-Indazol-7-yl)-6-(3-Methyl-1H-Pyrazol-5-yl)Pyridine-3-Sulfonamide] | > 2500 | < 400
Cc1n[nH]c2cccc(NS(=O)(=O)c3ccc(-n4cc(C(F)(F)F)cn4)nc3)c12 [Example I-24, N-(3-Methyl-1H-Indazol-4-yl)-6-(4-(Trifluoromethyl)-1H-Pyrazol-1-yl)Pyridine-3-Sulfonamide] | 1000 to 2500 | < 400
COc1ccc2cnn(C)c2c1NS(=O)(=O)c1ccc(-c2nc(C)n[nH]2)nc1 [Example I-166, N-(6-Methoxy-1-Methyl-1H-Indazol-7-yl)-6-(3-Methyl-1H-1,2,4-Triazol-5-yl)Pyridine-3-Sulfonamide] | > 2500 | > 2500
Cc1c(-c2ccc(S(=O)(=O)Nc3cccc4cnn(C)c34)cn2)cnn1C [Example I-88, 6-(1,5-Dimethyl-1H-Pyrazol-4-yl)-N-(1-Methyl-1H-Indazol-7-yl)Pyridine-3-Sulfonamide] | > 2500 | < 400
CCc1ccc2cnn(C)c2c1NS(=O)(=O)c1ccc(-n2ccc(C)n2)nc1 [Example I-33, N-(6-Ethyl-1-Methyl-1H-Indazol-7-yl)-6-(3-Methyl-1H-Pyrazol-1-yl)Pyridine-3-Sulfonamide] | < 400 | < 400
Cc1cnn(C)c1-c1ccc(S(=O)(=O)Nc2cccc3cnn(C)c23)cn1 [Example I-124, 6-(1,4-Dimethyl-1H-Pyrazol-5-yl)-N-(1-Methyl-1H-Indazol-7-yl)Pyridine-3-Sulfonamide] | > 2500 | > 2500
Cc1ccc(-c2ccc(S(=O)(=O)Nc3cccc4cnn(C)c34)cn2)cn1 [Example I-122, 6′-Methyl-N-(1-Methyl-1H-Indazol-7-yl)-[2,3′-Bipyridine]-5-Sulfonamide] | > 2500 | < 400
Cc1ncc(-c2ccc(S(=O)(=O)Nc3cccc4cnn(C)c34)cn2)cn1 [Example I-135, N-(1-Methyl-1H-Indazol-7-yl)-6-(2-Methylpyrimidin-5-yl)Pyridine-3-Sulfonamide] | > 2500 | 400 to 1000
Cn1ccc2cccc(NS(=O)(=O)c3ccc(-c4cc(C(F)(F)F)n[nH]4)nc3)c21 [Example I-143, N-(1-Methyl-1H-Indol-7-yl)-6-(5-(Trifluoromethyl)-1H-Pyrazol-3-yl)Pyridine-3-Sulfonamide] | < 400 | < 400
COc1ccc2cnn(C)c2c1NS(=O)(=O)c1ccc(-n2ccc(C(F)F)n2)nc1 [Example I-127, 6-(3-(Difluoromethyl)-1H-Pyrazol-1-yl)-N-(6-Methoxy-1-Methyl-1H-Indazol-7-yl)Pyridine-3-Sulfonamide] | < 400 | < 400
Cn1ncc2cccc(NS(=O)(=O)c3ccc(-c4cnn(C(F)F)c4)nc3)c21 [Example I-86, 6-(1-(Difluoromethyl)-1H-Pyrazol-4-yl)-N-(1-Methyl-1H-Indazol-7-yl)Pyridine-3-Sulfonamide] | > 2500 | < 400

Further lines, results first:

IC50 [1] [nM] | IC50 [2] [nM] | Compound
> 2500 | < 400 | COc1ccc(-c2ccc(S(=O)(=O)Nc3cccc4cnn(C)c34)cn2)cn1 [Example I-210, 6′-Methoxy-N-(1-Methyl-1H-Indazol-7-yl)-[2,3′-Bipyridine]-5-Sulfonamide]
< 400 | < 400 | COc1ncc2cnn(C)c2c1NS(=O)(=O)c1ccc(-c2csc(C)n2)nc1 [Example I-186, N-(6-methoxy-1-methyl-1H-pyrazolo[4,3-c]pyridin-7-yl)-6-(2-methylthiazol-4-yl)pyridine-3-sulfonamide]
> 2500 | < 400 | Cc1c(-c2ccc(S(=O)(=O)Nc3cccc4cnn(C)c34)cn2)cnn1C1COC1 [Example I-274]
< 400 | < 400 | COc1ncc2cnn(C)c2c1NS(=O)(=O)c1ccc(-n2cc(C3CC3)cn2)nc1 [Example I-187, 6-(4-cyclopropylpyrazol-1-yl)-N-{6-methoxy-1-methylpyrazolo[4,3-c]pyridin-7-yl}pyridine-3-sulfonamide]
> 2500 | > 2500 | Cn1[nH]c(=O)c2cccc(NS(=O)(=O)c3ccc(-n4cc(C(F)(F)F)cn4)nc3)c21 [Example I-201, N-(1-Methyl-3-Oxo-2,3-Dihydro-1H-Indazol-7-yl)-6-(4-(Trifluoromethyl)-1H-Pyrazol-1-yl)Pyridine-3-Sulfonamide]
1000 to 2500 | > 2500 | COc1ccc2cnn(C)c2c1NS(=O)(=O)c1ccc(-c2nc(C)nn2C)nc1 [Example I-239, 6-(1,3-dimethyl-1H-1,2,4-triazol-5-yl)-N-(6-methoxy-1-methyl-1H-indazol-7-yl)pyridine-3-sulfonamide]
> 2500 | 400 to 1000 | COc1ncc2cnn(C)c2c1NS(=O)(=O)c1ccc(-n2nccc2C(F)(F)F)nc1 [Example I-211, N-(6-Methoxy-1-Methyl-1H-Pyrazolo[4,3-C]Pyridin-7-yl)-6-(5-(Trifluoromethyl)-1H-Pyrazol-1-yl)Pyridine-3-Sulfonamide]
400 to 1000 | < 400 | COc1ccc2cnn(C)c2c1NS(=O)(=O)c1ccc(N2CCN(C)C2=O)nc1 [Example I-225, N-(6-Methoxy-1-Methyl-1H-Indazol-7-yl)-6-(3-Methyl-2-Oxoimidazolidin-1-yl)Pyridine-3-Sulfonamide]
